Data on six molecules can be found in US20210267979A1, “THERAPEUTIC AGENT FOR TREATING DIFFUSE GASTRIC CANCER” (KANAZAWA MEDICAL UNIVERSITY, priority 2018, published 2021).

Like-named read-outs stand apart in the source and are kept apart here.

In one experiment the test system is MKN7. Put plainly: Cell proliferation of non-diffuse gastric cancer cells MKN7 (Cell Counting Kit-8). Format: cell-based, Human. Conditions: for IC50: Homo sapiens, MKN-7, MKN7. On the procedure: (§1) Cell proliferation was measured by Cell Counting Kit-8 (CCK-8) (Dojindo Laboratories, Kumamoto, Japan) (M. Ishiyama, et al., Talenta 44; 1299: 1997). Cells were seeded at 100 micro L/well at a concentration of 5×10^4 cells/mL and were cultured in an incubator at 37° C. for 24 hours. To each well, HGF (R&D systems) (50 ng/mL) or amphiregulin (R&D Systems (Minneapolis, Minn.)) (100 ng/mL) and trametinib (Selleck Chemicals (Houston, Tex.)) (0.001 to 10 micro M) were then added, and the cells were further cultured in an incubator at 37° C. for 72 hours. To each well, 10 micro L of a WST-solution was added, which was incubated at 37° C. for 4 hours. Absorbance was measured at a wavelength of 450 nm by a microplate reader (BIO-RAD Laboratories, Inc.). A similar experiment was repeated three times in triplets.
(§2) Effects of trametinib on proliferation of non-diffuse gastric cancer cell were examined by the similar method to that in Example 1.
(§3) Human non-diffuse, well-differentiated gastric cancer cells used were MKN7 (Health Science Research Resources Bank (Osaka, Japan)) and GCR1 (Cancer Research Institute, Kanazawa University).

For the next experiment, the system named is GCIY. As to the kind of experiment: Cell proliferation of diffuse gastric cancer cell strain GCIY (Cell Counting Kit-8). Format: cell-based. Conditions: for IC50: Homo sapiens. As to the method: (§4) Each diffuse gastric cancer cell strain of NUGC4 (obtained from Health Science Research Resources Bank (Osaka, Japan)) and GCIY (obtained from Riken BioResource Research Center (Tsukuba, Japan)) was cultured and passaged in an RPMI1640 culture medium containing 10% fetal calf serum, 100 units/mL penicillin, and […] streptomycin antibiotic, and was used for the following experiments. Mycoplasma infection of cultured cells was regularly checked by MycoAlert Mycoplasma Detection kit (Lonza).
as §1
Background: Tetrazolium dyes change colour on reduction, which living cells bring about.

The test system of experiment [1] is NUGC4. As to the kind of experiment: Cell proliferation of diffuse gastric cancer cell strain NUGC4 (Cell Counting Kit-8). Format: cell-based. Conditions: for IC50: Homo sapiens.
The next experiment concerns GCR1. Put plainly: Cell proliferation of non-diffuse gastric cancer cells GCR1 (Cell Counting Kit-8). Format: cell-based. Conditions: Homo sapiens. As to the method:
as §1, §2, §3

The test system of the next experiment is MKN45. As to the kind of experiment: Cell proliferation of cMet gene-amplified gastric cancer cell strain MKN45 (Cell Counting Kit-8). Format: cell-based. Conditions: Homo sapiens. As to the method: as §1
Effects of trametinib on proliferation of cMet gene-amplified gastric cancer cell were examined by the similar method to that in Example 1.
As the cMet gene-amplified gastric cancer cells, cMet gene-amplified gastric cancer cell strain MKN45 (Health Science Research Resources Bank (Osaka, Japan)) was used.

The test system of experiment [2] is NUGC4. Put plainly: Cell proliferation of diffuse gastric cancer cell strain NUGC4 (Cell Counting Kit-8). Format: cell-based. Conditions: for IC50: Homo sapiens, 72 hours; for Inhibitory effect on HGF induced, amphiregulin induced and base line cell proliferation: single agent, 0.001 to 10 micro M. As to the method:
as §4, §1

The test system of another experiment is NUGC4 cells. As to the kind of experiment: Survival of Balb/c nu/nu mice intraperitoneally transplanted with diffuse gastric cancer cells. Format: in vivo, Balb/c nu/nu mouse. Conditions: NUGC4 intraperitoneal transplant; oral administration from day 21 for 4 weeks, then 4 weeks observation; control mice all died within 7 weeks.
[3] abbreviates: HGF induced proliferation, read-out: Trametinib IC50 (micro M) HGF.
Setting [4] is: HGF induced, combined with everolimus 1 micro M, read-out: Trametinib IC50 (micro M) HGF.
[5] abbreviates: amphiregulin induced proliferation, read-out: Trametinib IC50 (micro M) amphiregulin.
Where [6] appears, read: amphiregulin induced, combined with everolimus 1 micro M, read-out: Trametinib IC50 (micro M) amphiregulin.
[7] abbreviates: base line, Example 5, combined use with everolimus 1 micro M, read-out: Trametinib IC50 (micro M) Base line.
[8] abbreviates: without HGF or amphiregulin, read-out: Trametinib IC50 (micro M) Base line.

Protocol for NUGC4 cells: To a Balb/c nu/nu mouse (6 weeks old), diffuse gastric cancer cells (NUGC4 cells, 2×10^6 cells in 200 micro L PBS) were transplanted by intraperitoneal administration. On 21 days after transplantation, ascites was observed, and oral administration was started with trametinib (0.1 mg/kg body weight or 0.3 mg/kg body weight), everolimus (1.5 mg/kg body weight), combined use of trametinib (0.1 mg/kg body weight) and everolimus (1 mg/kg body weight), combined use of trametinib (0.1 mg/kg body weight) and everolimus (1 mg/kg body weight), combined use of trametinib (0.3 mg/kg) and everolimus (1 mg/kg), or combined use of trametinib (0.3 mg/kg body weight) and everolimus (5 mg/kg body weight). Each of the trametinib and the everolimus was dissolved in a solution (7% DMSO, 13% Tween80, 80% Otsuka glucose injection (5%), HCl equimolar to each compound). To a control group, only a solution containing no medicinal agent was administered. Administration was continued for 4 weeks, followed by observation for the following 4 weeks without administration of the medicinal agent.

On to `O=C(NC[C@H](O)CO)c1ccncc1Nc1ccc(I)cc1F` [pimasertib], for which the “Proliferation inhibitory effect of combined use of pimasertib and rapamycin” value in the experiment with MKN7 (MKN7, rapamycin 1 micro M) was “no combined effect was exhibited”.

Regarding `CC(=O)Nc1cccc(-n2c(=O)n(C3CC3)c(=O)c3c(Nc4ccc(I)cc4F)n(C)c(=O)c(C)c32)c1` [Trametinib, trametinib], the IC50 came to 100 nM in the experiment on MKN7 (setting [3]); 100 nM in the experiment on MKN7 (setting [4]); 300 nM with MKN7 (setting [5]); 100 nM with MKN7 (setting [6]); 30 nM with MKN7 (setting [7]); 100 nM with MKN7 (setting [8]). The half-inhibitory concentration (IC50) in the experiment with GCIY (HGF 50 ng/mL induced proliferation, 72 hours, read-out: Trametinib IC50 (micro M) HGF) was 100 nM; in the experiment on GCIY (setting [4]) it was 100 nM; with GCIY (amphiregulin 100 ng/mL induced proliferation, 72 hours, read-out: Trametinib IC50 (micro M) amphiregulin), 10000 nM; in the experiment on GCIY (setting [6]), 300 nM; with GCIY (setting [7]) it was 30 nM; with GCIY (without HGF and AP, 72 hours, read-out: Trametinib IC50 (micro M) Base line), 100 nM. Moreover, the IC50 in the experiment on NUGC4 [1] (NUGC-4, HGF induced, combined with everolimus 1 micro M, read-out: Trametinib IC50 (micro M) HGF) is 10 nM; with NUGC4 [1] (NUGC-4, amphiregulin induced, combined with everolimus 1 micro M, read-out: Trametinib IC50 (micro M) amphiregulin), 30 to 100 nM; in the experiment with NUGC4 [1] (NUGC-4, base line, Example 5, combined use with everolimus 1 micro M, read-out: Trametinib IC50 (micro M) Base line), at most 1 nM; in the experiment with GCR1 (setting [3]), 100 nM; with GCR1 (setting [4]), 100 nM; with GCR1 (setting [5]), 300 nM. Moreover, the IC50 was 100 nM in the experiment with GCR1 (setting [6]); 30 nM with GCR1 (setting [7]); 100 nM with GCR1 (setting [8]); 1 nM with MKN45 (MKN-45, HGF added, read-out: Trametinib IC50 (micro M) HGF); 1 nM in the experiment on MKN45 (MKN-45, amphiregulin added, read-out: Trametinib IC50 (micro M) amphiregulin); 1 nM in the experiment on MKN45 (MKN-45, without HGF and AP, read-out: Trametinib IC50 (micro M) Base line). Further, the IC50 is 100 nM with NUGC4 [2] (NUGC-4, HGF 50 ng/mL induced proliferation, read-out: Trametinib IC50 (micro M) HGF); 300 nM with NUGC4 [2] (NUGC-4, amphiregulin 100 ng/mL induced proliferation, read-out: Trametinib IC50 (micro M) amphiregulin); at most 1 nM with NUGC4 [2] (NUGC-4, without HGF and AP, read-out: Trametinib IC50 (micro M) Base line). Moreover, the “Concentration from which proliferation inhibitory effect on the amphiregulin induced proliferation was observed” value in the experiment on GCIY (amphiregulin induced) is at least 0.03 micro M.

Consider `CO[C@H]1C[C@@H]2CC[C@@H](C)[C@@](O)(O2)C(=O)C(=O)N2CCCC[C@H]2C(=O)O[C@H]([C@H](C)C[C@@H]2CC[C@@H](OCCO)[C@H](OC)C2)CC(=O)[C@H](C)/C=C(\C)[C@@H](O)[C@@H](OC)C(=O)[C@H](C)C[C@H](C)/C=C/C=C/C=C/1C` [everolimus], for which the “Survival time as compared with the control group” value in the experiment with NUGC4 cells is recorded as “prolonged survival times”.

Consider `O=C(NOC[C@H](O)CO)c1ccc(F)c(F)c1Nc1ccc(I)cc1F` [PD0325901], for which the “Proliferation inhibitory effect of combined use of PD0325901 and temsirolimus” value with MKN7 (MKN7, temsirolimus 1 micro M) was “no combined effect was exhibited”; in the experiment on NUGC4 [1] (temsirolimus 1 micro M), “synergistically improved by addition of temsirolimus”.

With `Cc1cc(NC(=O)c2cccc(NC(=O)/C=C/CN(C)C)c2)ccc1Nc1nccc(-c2cccnc2)n1` [JNK-IN-8], the “Inhibitory effect on HGF induced, amphiregulin induced and base line cell proliferation” value with NUGC4 [2] was “did not exhibit obvious inhibitory effects”.

On to AZD5363, for which the “Inhibitory effect on the HGF induced cell proliferation” value in the experiment with NUGC4 [2] (HGF induced) is given as “no inhibitory effect was exhibited except for a high concentration of 10 micro M”. The “Inhibitory effect on the amphiregulin induced cell proliferation” value in the experiment on NUGC4 [2] (amphiregulin induced) is given as “a slight inhibitory effect was exhibited at a high concentration of 1 micro M or more”. The “Inhibitory effect on HGF induced, amphiregulin induced and base line cell proliferation” value with NUGC4 [2] is listed as “even lower than the inhibitory effect of everolimus”. In addition, the “Inhibitory effect on the base line cell proliferation” value in the experiment with NUGC4 [2] (without HGF and AP) was “No inhibitory effect was exhibited”.

The IC50 is the concentration at which inhibition is half-maximal.
